Literature values, collected in patent US20030215409A1, “Process for the treatment of human keratinous fibers” (L'OREAL, priority 2002, published 2003).

Tested on: hair
Details: hair densification, current compositions

Nc1ccnc(N)[n+]1[O-] [aminexil]
time after which the user begins to have a benefit: 1.5 months
